The text below walks through data of US8076487B2, “Pyridone derivative and herbicide” (Kumiai Chemical Industry Co., Ltd., priority 2006, dated 2011).

What all share (type): in vivo
Assay [1] deals with Japanese bulrush (Scirpus juncoides Roxb.). In words: Test Example 1: herbicidal effect by soil application to paddy field. As to conditions: paddy field soil application; active ingredient 1,000 g per 1 hectare; wettable powder added dropwise to water surface the day after sowing; examined on the 21st day after application. The method in brief:
(§1)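 Plants were sown in flooded (3 cm) paddy soil and evaluated for herbicidal effect 21 days after soil application in a greenhouse.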

For assay [2], the system named is early watergrass (Echinochloa oryzicola Vasing). The description is as above. Conditions: paddy field soil application; active ingredient 1,000 g per 1 hectare; wettable powder added dropwise to water surface the day after sowing; examined on the 21st day after application. The method in brief: as §1
Assay [3] deals with heartshape false pickerelweed (Monochoria vaginalis (Burm.f.) C.Presl). The description is as above. As to conditions: paddy field soil application; active ingredient 1,000 g per 1 hectare; wettable powder added dropwise to water surface the day after sowing; examined on the 21st day after application. The method in brief:
as §1

Assay [4] concerns barnyardgrass (Echinochloa crus-galli (L.) P. Beauv. var. crus-galli). Description: Test Example 2: herbicidal effect by soil application to upland field. As to conditions: soil surface spray, upland field soil, 1,000 g active ingredient per hectare, 21st day after application. Put shortly: (§2)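 Herbicidal activity was graded on a standard scale on day 21 after soil application. The covered, freshly sown pots of field soil received an aqueous wettable-powder spray delivering 1,000 g active ingredient/ha at 1,000 liters/ha and were kept in a greenhouse.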

Assay [5] relates to green foxtail (Setaria viridis (L.) P. Beauv.). The assay is described as above. As to conditions: soil surface spray, upland field soil, 1,000 g active ingredient per hectare, 21st day after application. The method in brief:
as §2

The subject of assay [6] is slender amaranth (Amaranthus viridis L.). The description is as above. Conditions: soil surface spray, upland field soil, 1,000 g active ingredient per hectare, 21st day after application. The method in brief:
as §2

In assay [7] the test system is velvetleaf (Abutilon theophrasti medicus). The assay is described as above. As to conditions: soil surface spray, upland field soil, 1,000 g active ingredient per hectare, 21st day after application. Put shortly:
as §2

Assay [8] deals with barnyardgrass (Echinochloa crus-galli (L.) P. Beauv. var. crus-galli). Description: Test Example 3: herbicidal effect by application to upland field (foliage treatment). Conditions: foliage treatment, 1,000 g active ingredient per 1 hectare, 14th day after application, greenhouse. The method in brief:
(§3)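 Greenhouse-grown plants, two weeks old in field soil, were treated by spraying their foliage with a water dilution of wettable powder. Rate: 1,000 g active ingredient in a 1,000 L/ha equivalent volume. Assessment followed at 14 days.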

Assay [9] has as its system green foxtail (Setaria viridis (L.) P. Beauv.). The description is as above. Conditions: foliage treatment, 1,000 g active ingredient per 1 hectare, 14th day after application, greenhouse. Put shortly: as §3
For assay [10], the system named is slender amaranth (Amaranthus viridis L.). The description is as above. Conditions: foliage treatment, 1,000 g active ingredient per 1 hectare, 14th day after application, greenhouse. Put shortly: as §3
Assay [11] relates to velvetleaf (Abutilon theophrasti medicus). The description is as above. Conditions: foliage treatment, 1,000 g active ingredient per 1 hectare, 14th day after application, greenhouse. Put shortly: as §3

Turning to `COC(Cn1c(C(F)(F)F)ccc(C(=O)C2=C(O)C3CCC(C3)C2=O)c1=O)OC` (centres unmarked) [III-25], the “herbicidal effect, Scirpus juncoides Roxb.” value in assay [1] was 5 (90% or more of herbicidal effect and crop phytotoxicity). Also, in assay [2], the “herbicidal effect, Echinochloa oryzicola Vasing” value was 5 (90% or more of herbicidal effect and crop phytotoxicity). The “herbicidal effect, Monochoria vaginalis (Burm. f.) C. Presl” value (shortened to “herbicidal effect, Monochoria vaginalis”) in assay [3] is 5 (90% or more of herbicidal effect and crop phytotoxicity). Also, the “herbicidal effect (index), Barnyardgrass” value in [4] was 5 (90% or more of herbicidal effect and crop phytotoxicity). In assay [5], the “herbicidal effect (index), Green Foxtail” value is 5 (90% or more of herbicidal effect and crop phytotoxicity). In assay [6], the “herbicidal effect (index), Slender Amaranth” value was 5 (90% or more of herbicidal effect and crop phytotoxicity). Besides, the “herbicidal effect (index), Velvetleaf” value in [7] was 5 (90% or more of herbicidal effect and crop phytotoxicity). For the same molecule, the “herbicidal effect, Barnyardgrass” value in assay [8] is 5 (90% or more of herbicidal effect and crop phytotoxicity). For the same molecule, the “herbicidal effect, Green Foxtail” value in assay [9] was 5 (90% or more of herbicidal effect and crop phytotoxicity). Further, in assay [10], the “herbicidal effect, Slender Amaranth” value was 5 (90% or more of herbicidal effect and crop phytotoxicity). Also, the “herbicidal effect, Velvetleaf” value in assay [11] was 5 (90% or more of herbicidal effect and crop phytotoxicity).

Take `CSCCn1c(C(F)(F)F)ccc(C(=O)C2=C(O)C3CCC(C3)C2=O)c1=O` (centres unmarked) [III-28]: the “herbicidal effect, Scirpus juncoides Roxb.” value in assay [1] is 5 (90% or more of herbicidal effect and crop phytotoxicity). Moreover, the “herbicidal effect, Echinochloa oryzicola Vasing” value in assay [2] was 5 (90% or more of herbicidal effect and crop phytotoxicity). Further, the “herbicidal effect, Monochoria vaginalis” value in [3] is 5 (90% or more of herbicidal effect and crop phytotoxicity). In [4], the “herbicidal effect (index), Barnyardgrass” value is 5 (90% or more of herbicidal effect and crop phytotoxicity). In addition, the “herbicidal effect (index), Green Foxtail” value in assay [5] is 5 (90% or more of herbicidal effect and crop phytotoxicity). For the same molecule, the “herbicidal effect (index), Slender Amaranth” value in assay [6] is 5 (90% or more of herbicidal effect and crop phytotoxicity). The “herbicidal effect (index), Velvetleaf” value in assay [7] was 5 (90% or more of herbicidal effect and crop phytotoxicity). Moreover, the “herbicidal effect, Barnyardgrass” value in assay [8] was 5 (90% or more of herbicidal effect and crop phytotoxicity). Also, the “herbicidal effect, Green Foxtail” value in assay [9] was 5 (90% or more of herbicidal effect and crop phytotoxicity). For the same molecule, the “herbicidal effect, Slender Amaranth” value in assay [10] is 5 (90% or more of herbicidal effect and crop phytotoxicity). In addition, in assay [11], the “herbicidal effect, Velvetleaf” value is 5 (90% or more of herbicidal effect and crop phytotoxicity).

As to `C[S+]([O-])CCn1c(C(F)(F)F)ccc(C(=O)C2=C(O)C3CCC(C3)C2=O)c1=O` (centres unmarked) [III-29], the “herbicidal effect, Scirpus juncoides Roxb.” value in assay [1] is 5 (90% or more of herbicidal effect and crop phytotoxicity). Also, the “herbicidal effect, Echinochloa oryzicola Vasing” value in [2] is 5 (90% or more of herbicidal effect and crop phytotoxicity). For the same molecule, in [3], the “herbicidal effect, Monochoria vaginalis” value is 5 (90% or more of herbicidal effect and crop phytotoxicity). The “herbicidal effect (index), Barnyardgrass” value in [4] is 5 (90% or more of herbicidal effect and crop phytotoxicity). Moreover, the “herbicidal effect (index), Green Foxtail” value in [5] was 5 (90% or more of herbicidal effect and crop phytotoxicity). In assay [6], the “herbicidal effect (index), Slender Amaranth” value is 5 (90% or more of herbicidal effect and crop phytotoxicity). The “herbicidal effect (index), Velvetleaf” value in [7] is 5 (90% or more of herbicidal effect and crop phytotoxicity). Also, the “herbicidal effect, Barnyardgrass” value in [8] is 5 (90% or more of herbicidal effect and crop phytotoxicity). In addition, the “herbicidal effect, Green Foxtail” value in [9] was 5 (90% or more of herbicidal effect and crop phytotoxicity). The “herbicidal effect, Slender Amaranth” value in assay [10] was 5 (90% or more of herbicidal effect and crop phytotoxicity). The “herbicidal effect, Velvetleaf” value in assay [11] is 5 (90% or more of herbicidal effect and crop phytotoxicity).

As for `C[S+]([O-])CCCn1c(C(F)(F)F)ccc(C(=O)C2=C(O)C3CCC(C3)C2=O)c1=O` (centres unmarked) [III-32], in assay [1], the “herbicidal effect, Scirpus juncoides Roxb.” value is 5 (90% or more of herbicidal effect and crop phytotoxicity). Besides, the “herbicidal effect, Echinochloa oryzicola Vasing” value in assay [2] was 5 (90% or more of herbicidal effect and crop phytotoxicity). In addition, the “herbicidal effect, Monochoria vaginalis” value in [3] was 5 (90% or more of herbicidal effect and crop phytotoxicity). The “herbicidal effect (index), Barnyardgrass” value in assay [4] is 5 (90% or more of herbicidal effect and crop phytotoxicity). For the same molecule, the “herbicidal effect (index), Green Foxtail” value in assay [5] was 5 (90% or more of herbicidal effect and crop phytotoxicity). For the same molecule, in assay [6], the “herbicidal effect (index), Slender Amaranth” value was 5 (90% or more of herbicidal effect and crop phytotoxicity). The “herbicidal effect (index), Velvetleaf” value in [7] was 5 (90% or more of herbicidal effect and crop phytotoxicity). The “herbicidal effect, Barnyardgrass” value in [8] is 5 (90% or more of herbicidal effect and crop phytotoxicity). Moreover, the “herbicidal effect, Green Foxtail” value in assay [9] was 5 (90% or more of herbicidal effect and crop phytotoxicity). Besides, the “herbicidal effect, Slender Amaranth” value in assay [10] is 5 (90% or more of herbicidal effect and crop phytotoxicity). For the same molecule, the “herbicidal effect, Velvetleaf” value in [11] is 5 (90% or more of herbicidal effect and crop phytotoxicity).

With `CS(=O)(=O)CCCn1c(C(F)(F)F)ccc(C(=O)C2=C(O)C3CCC(C3)C2=O)c1=O` (centres unmarked) [III-33], the “herbicidal effect, Scirpus juncoides Roxb.” value in assay [1] is 5 (90% or more of herbicidal effect and crop phytotoxicity). For the same molecule, the “herbicidal effect, Echinochloa oryzicola Vasing” value in assay [2] is 5 (90% or more of herbicidal effect and crop phytotoxicity). For the same molecule, the “herbicidal effect, Monochoria vaginalis” value in assay [3] is 5 (90% or more of herbicidal effect and crop phytotoxicity). Moreover, in [4], the “herbicidal effect (index), Barnyardgrass” value was 4 (70 to less than 90% of herbicidal effect and crop phytotoxicity). Besides, the “herbicidal effect (index), Green Foxtail” value in [5] was 5 (90% or more of herbicidal effect and crop phytotoxicity). Besides, in assay [6], the “herbicidal effect (index), Slender Amaranth” value was 5 (90% or more of herbicidal effect and crop phytotoxicity). Further, the “herbicidal effect (index), Velvetleaf” value in assay [7] was 5 (90% or more of herbicidal effect and crop phytotoxicity). Also, in assay [8], the “herbicidal effect, Barnyardgrass” value was 5 (90% or more of herbicidal effect and crop phytotoxicity). Besides, the “herbicidal effect, Green Foxtail” value in assay [9] was 5 (90% or more of herbicidal effect and crop phytotoxicity). In addition, in assay [10], the “herbicidal effect, Slender Amaranth” value was 5 (90% or more of herbicidal effect and crop phytotoxicity). In addition, in [11], the “herbicidal effect, Velvetleaf” value is 5 (90% or more of herbicidal effect and crop phytotoxicity).

Take `O=C(C1=C(O)C2CCC(C2)C1=O)c1ccc(C(F)(F)F)n(-c2ccccc2)c1=O` (centres unmarked) [III-34]: in assay [1], the “herbicidal effect, Scirpus juncoides Roxb.” value is 5 (90% or more of herbicidal effect and crop phytotoxicity). Also, the “herbicidal effect, Echinochloa oryzicola Vasing” value in assay [2] was 5 (90% or more of herbicidal effect and crop phytotoxicity). Moreover, the “herbicidal effect, Monochoria vaginalis” value in assay [3] is 5 (90% or more of herbicidal effect and crop phytotoxicity). Also, in assay [4], the “herbicidal effect (index), Barnyardgrass” value is 5 (90% or more of herbicidal effect and crop phytotoxicity). Further, the “herbicidal effect (index), Green Foxtail” value in assay [5] was 5 (90% or more of herbicidal effect and crop phytotoxicity). For the same molecule, in [6], the “herbicidal effect (index), Slender Amaranth” value was 5 (90% or more of herbicidal effect and crop phytotoxicity). The “herbicidal effect (index), Velvetleaf” value in [7] is 5 (90% or more of herbicidal effect and crop phytotoxicity). Besides, the “herbicidal effect, Barnyardgrass” value in [8] was 5 (90% or more of herbicidal effect and crop phytotoxicity). Also, the “herbicidal effect, Green Foxtail” value in assay [9] was 5 (90% or more of herbicidal effect and crop phytotoxicity). For the same molecule, the “herbicidal effect, Slender Amaranth” value in assay [10] is 5 (90% or more of herbicidal effect and crop phytotoxicity). Moreover, the “herbicidal effect, Velvetleaf” value in [11] was 5 (90% or more of herbicidal effect and crop phytotoxicity).

For `Cc1ccc(-n2c(C(F)(F)F)ccc(C(=O)C3=C(O)C4CCC(C4)C3=O)c2=O)cc1` (centres unmarked) [III-35], the “herbicidal effect, Scirpus juncoides Roxb.” value in assay [1] is 5 (90% or more of herbicidal effect and crop phytotoxicity). For the same molecule, the “herbicidal effect, Echinochloa oryzicola Vasing” value in [2] is 5 (90% or more of herbicidal effect and crop phytotoxicity). For the same molecule, the “herbicidal effect, Monochoria vaginalis” value in assay [3] was 5 (90% or more of herbicidal effect and crop phytotoxicity). Moreover, in [4], the “herbicidal effect (index), Barnyardgrass” value was 5 (90% or more of herbicidal effect and crop phytotoxicity). In addition, the “herbicidal effect (index), Green Foxtail” value in assay [5] is 5 (90% or more of herbicidal effect and crop phytotoxicity). In [6], the “herbicidal effect (index), Slender Amaranth” value was 5 (90% or more of herbicidal effect and crop phytotoxicity). In addition, the “herbicidal effect (index), Velvetleaf” value in assay [7] is 5 (90% or more of herbicidal effect and crop phytotoxicity). Further, the “herbicidal effect, Barnyardgrass” value in assay [8] is 5 (90% or more of herbicidal effect and crop phytotoxicity). In assay [9], the “herbicidal effect, Green Foxtail” value was 5 (90% or more of herbicidal effect and crop phytotoxicity). Besides, the “herbicidal effect, Slender Amaranth” value in assay [10] was 5 (90% or more of herbicidal effect and crop phytotoxicity). For the same molecule, the “herbicidal effect, Velvetleaf” value in assay [11] is 5 (90% or more of herbicidal effect and crop phytotoxicity).
